These are literature values, as cited in patent US20110165235A1, “DIRECTLY PRESSED ALISKIREN TABLETS” (ratiopharm GmbH, priority 2008, published 2011).

For this data set the following is noted: BCS classification.

Take `COCCCOc1cc(C[C@@H](C[C@H](N)[C@@H](O)C[C@H](C(=O)NCC(C)(C)C(N)=O)C(C)C)C(C)C)ccc1OC` [Aliskiren, (2S,4S,5S,7S)-5-amino-N-(2-carbamoyl-2-methyl-propyl)-4-hydroxy-7-{[4-methoxy-3-(3-methoxypropoxy)phenyl]methyl}-8-methyl-2-propan-2-yl-nonanamide]: the solubility entry is on record as “high”.
